# Measured values reported in patent US11266768B2, “Stretch release drug delivery materials” (TRUSTEES OF BOSTON UNIVERSITY, priority 2013, dated 2022).
# “Also recorded” adds a separate entry of the source.
# Assays:
# [1] = Strain-modulated release of SN-38 from mechanoresponsive drug delivery device (fluorimetry); assay type: physicochemical; conditions: for release of SN-38 from device: PBS or RPMI with 10% v/v fetal bovine serum
# Procedure: SN-38 from release media was quantified by mixing one (1) part release medium (containing drug) in three (3) parts 20 mM borate buffer (pH=9), which converts SN-38 to the carboxylate form. Fluorescence was detected by fluorimetry at an excitation of 380 nm and emission of 550 nm, as previously described (Yohe, J Controlled Release 2012, 162). (FIG. 42)
# A drug delivery device with incorporated SN-38 was fabricated in accordance with Example 2, above. The ends of the material were placed between two pieces of foam tape and further secured by applying glue to the ends in contact with the foam tape. The ends were then placed between the grips of a tensile tester machine (Instron 5848 Microtester) and the sample length between the grips was recorded. A water bath was placed under the sample arms, and the drug delivery device was submerged beneath 300 mL of phosphate-buffered saline (PBS) or cell media, RPMI with 10% v/v fetal bovine serum. A magnetic stir bar was also added to the bath to ensure thorough mixing during the study. The Instron software was then programmed to extend the sample arms at a constant rate of 2 mm/s until a travel distance equivalent to thirty percent of the initial sample length was reached (corresponding to 30% strain), or equivalent to the entire initial sample length was reached (corresponding to 100% strain). Once the device was stretched, aliquots of release medium were sampled at predetermined time points. The percentage of SN-38 released into the surrounding aqueous environment was calculated using fluorimetry, as described in Example 31. Devices were also placed on the tensile tester, but in this instance they were not stretched (0% strain), to serve as control experiments. Release of the chemotherapy agent from devices subjected to 100% strain and more moderate from devices subjected to 30% strain. […] (FIG. 43)
# OE33, oesophageal cancer = test: OE33 cell viability with SN-38 release aliquots (MTS Assay); assay type: cell-based; conditions: release aliquots in RPMI with 10% fetal bovine serum incubated 96 hours
# From the text: By altering the amount of strain, the rate of SN-38 release can be controlled in order to provide a range of concentrations at fixed time points. […] The concentration of SN-38 can be either lower or higher than the IC50 value such that a similar curve can be created using force and/or strain, rather than, or in addition to, concentration. […] Because SN-38 is a toxic chemotherapeutic drug, the amount of SN-38 released correlates with cell viability. […] (FIG. 44)
# [2] = Tension-triggered release of cisplatin from mechanoresponsive drug delivery device (atomic absorption); assay type: physicochemical; conditions: for release of cisplatin from device: PBS
# From the text: The amount of cisplatin released from the drug delivery system into the surrounding aqueous environment was quantified through flameless atomic absorption spectroscopy (also known as graphite furnace atomic absorption or electrothermal absorption (Varian AA240Z Atomic Absorption)). The platinum atom has a strong absorbance band at 265.9 nm, and was used for detecting the presence of platinum (the major component of the anticancer agent cisplatin) in the release medium. A standard curve was first created, and aliquots (sampled at different timepoints) from the release medium with unknown cisplatin concentrations were determined from this standard curve. The concentration values were then converted to amount (mass) of cisplatin released by multiplying the concentration by the total volume of solution into which the agent released. The amount of cisplatin actually released was then divided by the amount of cisplatin initially loaded into the device, to get a percentage of cisplatin released as a function of time.
# A drug delivery device with incorporated cisplatin was fabricated in accordance with Example 1 above. The ends of the material were placed between two pieces of foam tape and further secured by applying glue to the ends in contact with the foam tape. The ends were then placed between the grips of a tensile tester machine (Instron 5848 Microtester) and the sample length between the grips was recorded. A water bath was placed under the sample arms, and the drug delivery device was submerged beneath 300 mL of phosphate-buffered saline (PBS). A magnetic stir bar was also added to the bath to ensure thorough mixing during the study. The Instron software was then programmed to extend the sample arms at a constant rate of 2 mm/s until a travel distance equivalent to the initial sample length was reached (corresponding to 100% strain). […] The percentage of cisplatin released into the surrounding aqueous environment was calculated using flameless atomic absorption spectroscopy, as described in Example 16. […]
# OE33 cells = test: OE33 cell viability with cisplatin release aliquots (MTS Assay); assay type: cell-based; conditions: release aliquots incubated 72 hours with OE33 cells
# Procedure: Aliquots from release (FIG. 39) were incubated for 72 hours with OE33 cells, an oesophageal cell line. Cell viability from incubation of release aliquots over two hours were determined by MTS Assay, left. Cell viability at the 30-minute release at various strain magnitude are shown, right (p<0.05 for 30%, 100% when compared to 0%).
# Cisplatin is used in the treatment of esophageal cancer. […] They used an esophageal cell line, OE33 (Sigma), to show the efficacy of cisplatin released from the tension-modulated drug delivery device, and that a dose-response curve can be generated using force and/or strain as the means to alter the dose. […] By altering the amount of force, the rate of cisplatin release can be controlled in order to provide a range of concentrations at fixed time points. The concentration of cisplatin can be either lower or higher than the IC50 value such that a similar curve may be created using force and/or strain on the x-axis, rather than, or in addition to, concentration.
# Cisplatin can be loaded into these systems as described in Example 14. Cisplatin can be used to achieve dose-dependent tumor cell death, and also strain-dependent cell death. A strain-dependent release of cisplatin, a small hydrophilic drug molecule, can be seen in FIG. 39. Because cisplatin is a cytotoxic chemotherapeutic drug, the amount of cisplatin released correlates with cell viability (FIG. 40).
# OE33 = conditions: 72 hours of incubation; read-out: IC50 of cisplatin with OE33; cited from earlier work
# [3] = Tension-triggered release of FITC-BSA from mechanoresponsive drug delivery device (fluorescence); assay type: physicochemical; conditions: PBS with 10% serum
# From the text: The amount of fluorescein isothiocyanate-labeled bovine serum albumin (FITC-BSA) released from the drug delivery system into the surrounding aqueous environment was quantified through fluorescence spectrophotometry. The fluorescein isothiocyanate is a fluorophore that is maximally excited around 495 nm and maximally emits at around 520 nm. The fluorescence intensity emitted at 520 nm was used to construct a standard curve of fluorescence versus FITC-BSA concentration. Unknown FITC-BSA concentrations in the release medium were calculated from this standard curve. The concentration values were then converted to amount (mass) of FITC-BSA released by multiplying by the concentration values by the total volume of solution into which the protein released. The amount of FITC-BSA actually released was then divided by the amount of FITC-BSA initially loaded into the device, to get a percentage of protein released as a function of time. (FIGS. 19-21)
# A drug delivery device with incorporated fluorescein isothiocyanate-labeled bovine serum albumin (FITC-BSA) was fabricated in accordance with Example 1 above. The ends of the material were placed between two pieces of foam tape and further secured by applying glue to the ends in contact with the foam tape. The ends were then placed between the grips of a tensile tester machine (Instron 5848 Microtester) and the sample length between the grips was recorded. A water bath was placed under the sample arms, and the drug delivery device was submerged beneath 300 mL of phosphate-buffered saline (PBS) with 10% serum (fetal bovine serum). A magnetic stir bar was also added to the bath to ensure thorough mixing during the study. The Instron software was then programmed to extend the sample arms at a constant rate of 2 mm/s until a travel distance equivalent to the initial sample length was reached (corresponding to 100% strain). Once the device was stretched, aliquots of release medium were sampled at predetermined time points. The percentage of protein released into the surrounding aqueous environment was calculated using fluorescence spectrophotometry, as described in Example 13 above. Devices were also placed on the tensile tester, but in this instance they were not stretched (0% strain), to serve as control experiments. Release of the fluorescent protein from devices subjected to strain was rapid, and was achieved only under the application of strain. […] (FIG. 24)
# A drug delivery device with incorporated fluorescein isothiocyanate-labeled bovine serum albumin (FITC-BSA) was fabricated in accordance with Example 1 above. The coating was electrosprayed using a tip-to-collector distance of 15 cm. The ends of the material were placed between two pieces of foam tape and further secured by applying glue to the ends in contact with the foam tape. The ends were then placed between the grips of a tensile tester machine (Instron 5848 Microtester) and the sample length between the grips was recorded. A water bath was placed under the sample arms, and the drug delivery device was submerged beneath 300 mL of phosphate-buffered saline (PBS) with 10% serum (fetal bovine serum). A magnetic stir bar was also added to the bath to ensure thorough mixing during the study. The Instron software was then programmed to extend the sample arms at a constant rate of 2 mm/s until a travel distance equivalent to half of the initial sample length was reached (corresponding to 50% strain), or equivalent to the entire initial sample length was reached (corresponding to 100% strain). Once the device was stretched, aliquots of release medium were sampled at predetermined time points. The percentage of protein released into the surrounding aqueous environment was calculated using fluorescence spectrophotometry, as described in Example 13 above. Devices were also placed on the tensile tester, but in this instance they were not stretched (0% strain) to serve as a control experiment. […]
# [4] = tested on: type I collagen in fibroblasts; conditions: cited from earlier work
compound,measurement,setting,value
"CCc1c2c(nc3ccc(O)cc13)-c1cc3c(c(=O)n1C2)COC(=O)[C@]3(O)CC [SN-38, 7-ethyl-10-hydroxycamptothecin]",dependence of SN-38 release on strain,[1],strain-dependent
same,release of SN-38 from device,[1]; 0% strain,did not release appreciable amounts of drug
same,release of SN-38 from device,[1]; 30% strain,more moderate
same,cell viability with released SN-38,"OE33, oesophageal cancer",deliver an efficacious amount of SN-38 to change the cell viability; also recorded: significant decreases in viability with increasing strain
"N.N.[Cl][Pt][Cl] [cisplatin, Cis-diamminedichloroplatinum(II)]",release of cisplatin from device,[2]; 100% strain,rapid release
same,dependence of cisplatin release on strain,[2]; cell media solution (RPMI) with fetal bovine serum (10% v/v),strain-dependent; also recorded: tension-dependent
same,release of cisplatin from device,[2]; no applied tension (0% strain),did not release appreciable amounts of drug; also recorded: minimal release
same,cell viability with released cisplatin,OE33 cells,deliver an efficacious amount of cisplatin to change the cell viability
same,IC50,OE33,2170 nM
"FITC-BSA: Fluorescein isothiocyanate-labeled bovine serum albumin, model protein",release of FITC-BSA from device,"[3]; 0% strain, dry coating, tip-to-collector distance 15 cm",did not release appreciable amounts of protein; also recorded: minimal release
same,release of FITC-BSA from device,"[3]; 50% strain, dry coating, tip-to-collector distance 15 cm",more moderate; also recorded: modest release profile
same,release of FITC-BSA from device,[3]; 100% strain,rapid release
same,release of FITC-BSA from device,"[3]; 100% strain, listed as protein",rapid drug release
same,release of FITC-BSA from device,"[3]; 100% strain, dry coating, tip-to-collector distance 15 cm",most rapid; also recorded: rapid release
same,release of FITC-BSA from device,[3]; no applied tension (0% strain),did not release appreciable amounts of protein; also recorded: minimal release
same,release of FITC-BSA from device,"[3]; no applied tension (0% strain), listed as protein",did not release appreciable amounts of drug
TNF-α,effect on synthesis of type I collagen,[4],inhibit synthesis of type I collagen
